From patent US20210115018A1, “PIPERIDINE COMPOUNDS AS COVALENT MENIN INHIBITORS” (THE REGENTS OF THE UNIVERSITY OF MICHIGAN, priority 2018, published 2021)

Columns and labels:
MV4-11 = assay: 7-day proliferation assay (WST-8), cell growth inhibition; format: cell-based; settings: MV4-11 cells, 7 days
Description: (§1) The effect of representative Compounds of the Disclosure on cell viability was determined in a 7-day proliferation assay. Cells were maintained in the appropriate culture medium with 10% FBS at 37° C. and an atmosphere of 5% CO2.
(§2) Cells were seeded in 96-well flat bottom (Corning COSTAR, Corning, NY, cat#3595) at a density of 2,000-3,000 cells/well in 100 μl of culture medium. Compounds were serially diluted in the appropriate medium, and […] the diluted compounds were added to the appropriate wells of the cell plate. After the addition of compounds, the cells were incubated at 37° C. in an atmosphere of 5% CO2 for 7 days. Cell viability was determined using the WST (2-(2-methoxy-4-nitrophenyl)-3-(4-nitrophenyl)-5-(2,4-disulfophenyl)-2H-tetrazolium, monosodium salt) Cell Counting-8 Kit (Dojindo Molecular Technologies, Inc., Rockville, Md.) according to the manufacturers' instructions.
(§3) WST-8 reagent was added to each well at a final concentration of 10% (v/v), and then the plates were incubated at 37° C. for 1-2 hours for color development. The absorbance was measured at 450 nm using a SPECTRAmax PLUS plate reader (Molecular Devices, Sunnyvale, Calif.). The readings were normalized to the DMSO-treated cells and the half maximal inhibitory concentration (IC50) was calculated by nonlinear regression (four parameters sigmoid fitted with variable slope, least squares fit, and no constraint) analysis using the GraphPad Prism 5 software (GraphPad Software, La Jolla, Calif.).

menin protein = target: T1, menin protein (Homo sapiens, UniProt O00255); assay: Fluorescence polarization (FP) competitive binding assay, menin binding affinity; settings: FP competition with FAM-MM2 probe 2 nM, menin 4 nM, 30 minutes room temperature
T1 sequence (O00255 1-610): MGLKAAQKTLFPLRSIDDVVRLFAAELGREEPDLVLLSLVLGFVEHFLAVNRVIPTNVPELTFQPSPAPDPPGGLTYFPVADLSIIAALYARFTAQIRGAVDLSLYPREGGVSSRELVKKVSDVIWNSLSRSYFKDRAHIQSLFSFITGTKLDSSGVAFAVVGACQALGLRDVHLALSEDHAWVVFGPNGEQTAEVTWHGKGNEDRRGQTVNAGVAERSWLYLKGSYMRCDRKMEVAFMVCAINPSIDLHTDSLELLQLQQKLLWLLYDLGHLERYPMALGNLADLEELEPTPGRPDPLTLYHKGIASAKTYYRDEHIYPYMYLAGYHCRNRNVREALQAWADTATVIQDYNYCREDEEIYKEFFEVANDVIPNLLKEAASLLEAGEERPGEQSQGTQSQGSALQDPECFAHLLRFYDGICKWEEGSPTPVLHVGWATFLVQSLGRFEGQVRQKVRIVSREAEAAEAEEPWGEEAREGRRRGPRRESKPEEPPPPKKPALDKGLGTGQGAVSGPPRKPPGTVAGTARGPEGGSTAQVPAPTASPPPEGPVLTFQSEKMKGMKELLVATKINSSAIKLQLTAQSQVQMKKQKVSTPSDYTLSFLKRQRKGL
Description: A fluorescence polarization (FP) competitive binding assay was used to determine the binding affinities of representative menin inhibitors. A FAM labeled fluorescent probe was designed and synthesized based on a MLL1 peptide (FAM-MM2). Equilibrium dissociation constant (Kd) value of FAM-MM2 to menin protein was determined from protein saturation experiments by monitoring the total fluorescence polarization of mixtures composed with the fluorescent probe at a fixed concentration and the protein with increasing concentrations up to full saturation. Serial dilutions of the protein were mixed with FAM-MM2 to a final volume of 200 μl in the assay buffer (PBS with 0.02% Bovine γ-Globulin and 4% DMSO. 0.01% Triton X-100 was added right before assays). Final FAM-MM2 concentration was 2 nM. Plates were incubated at room temperature for 30 minutes with gentle shaking to assure equilibrium. FP values in millipolarization units (mP) were measured using the Infinite M-1000 plate reader (Tecan U.S., Research Triangle Park, N.C.) in Microfluor 1 96-well, black, v-bottom plates (Thermo Scientific, Waltham, Mass.) at an excitation wavelength of 485 nm and an emission wavelength of 530 nm.
The IC50 of representative Compounds of the Disclosure, see Table 3, were determined in a competitive binding experiment. Mixtures of 5 μl of the tested compounds in DMSO and 195 μl of preincubated protein/probe complex solution in the assay buffer were added into assay plates which were incubated at room temperature for 30 minutes with gentle shaking. Final concentration of the menin protein was 4 nM, and final probe concentration is 2 nM. Negative controls containing protein/probe complex only (equivalent to 0% inhibition), and positive controls containing only free probes (equivalent to 100% inhibition), were included in each assay plate. FP values were measured as described above. IC50 values were determined by nonlinear regression fitting of the competition curves.

MOLM13 = assay: 7-day proliferation assay (WST-8), cell growth inhibition; format: cell-based; settings: Homo sapiens, MOLM-13, 168 h, MOLM13 cells, 7 days
Description: as §1, §2, §3

Row | Compound | IC50 (MV4-11; Homo sapiens, MV4-11, 168 h) [nM] | IC50 (menin protein) [nM] | IC50 (MOLM13) [nM] | IC50 (MV4-11) [nM]
1 | COC(=O)N[C@H]1CCC[C@@H]1[C@](CN1CCC1)(c1cccc(F)c1)C1CCN(CC2CN(c3ccc(S(=O)(=O)C4CN(C(=O)/C=C/CN5CCOCC5)C4)cc3)C2)CC1 [Cpd. No. 25, methyl ((1S,2R)-2-((S)-2-(azetidin-1-yl)-1-(3-fluorophenyl)-1-(1-((1-(4-((1-((E)-4-morpholinobut-2-enoyl)azetidin-3-yl)sulfonyl)phenyl)azetidin-3-yl)methyl)piperidin-4-yl)ethyl)cyclopentyl)carbamate] | < 10 | 7 | – | –
2 | C=CC(=O)Nc1cc(F)cc(S(=O)(=O)c2ccc(N3CC(CN4CCC([C@@](CN5CCC5)(c5cccc(F)c5)[C@H]5CCC[C@@H]5NC(=O)OC)CC4)C3)cc2)c1 [compound 72] | < 10 | – | < 50 | –
3 | COC(=O)N[C@H]1CCC[C@@H]1[C@](CN1CCC1)(c1cccc(F)c1)C1CCN(CC2CN(c3ccc(S(=O)(=O)C4CN(C(=O)/C=C/CN5CCC(F)CC5)C4)cc3)C2)CC1 [compound 100] | < 10 | 4 | – | –
4 | C=CC(=O)N1CCCC[C@H](S(=O)(=O)c2ccc(N3CC(CN4CCC([C@@](CN5CCC5)(c5cccc(F)c5)[C@H]5CCC[C@@H]5NC(=O)OC)CC4)(OC)C3)cc2)C1 [compound 234] | – | 4 | – | –
5 | C=CC(=O)N1CCCC[C@H](S(=O)(=O)c2ccc(N3CC(CN4CCC([C@@](CN5CCC5)(c5cccc(F)c5)[C@H]5CCC[C@@H]5NC(=O)OC)CC4)(OC)C3)c(F)c2)C1 [compound 235] | – | 4 | – | –
6 | C=CC(=O)N1CCCC[C@H](S(=O)(=O)c2ccc(N3CC(F)(CN4CCC([C@@](CN5CCC5)(c5cccc(F)c5)[C@H]5CCC[C@@H]5NC(=O)OC)CC4)C3)cc2)C1 [compound 236] | – | 4 | – | –
7 | C=CC(=O)N1CCCC[C@H](S(=O)(=O)c2ccc(N3CC(F)(CN4CCC([C@@](CN5CCC5)(c5cccc(F)c5)[C@H]5CCC[C@@H]5NC(=O)OC)CC4)C3)c(F)c2)C1 [compound 237] | – | 4 | – | –
8 | C=CC(=O)N1CCN(C(C)=O)[C@H](CS(=O)(=O)c2ccc(N3CC(CN4CCC([C@@](CN5CCC5)(c5cccc(F)c5)[C@H]5CCC[C@@H]5NC(=O)OC)CC4)(OC)C3)cc2)C1 [compound 238] | – | 7 | – | –
9 | C=CC(=O)N1CCN(C(C)=O)[C@@H](CS(=O)(=O)c2ccc(N3CC(CN4CCC([C@@](CN5CCC5)(c5cccc(F)c5)[C@H]5CCC[C@@H]5NC(=O)OC)CC4)(OC)C3)cc2)C1 [compound 239] | – | 6 | – | –
10 | C=CC(=O)N1CC2CC1CN2S(=O)(=O)c1ccc(N2CC(CN3CCC([C@@](CN4CCC4)(c4cccc(F)c4)[C@H]4CCC[C@@H]4NC(=O)OC)CC3)(OC)C2)cc1 (some centres unmarked) [compound 240] | – | 4 | – | –
11 | C=CC(=O)N1CCN(C(C)=O)CC(S(=O)(=O)c2ccc(N3CC(CN4CCC([C@@](CN5CCC5)(c5cccc(F)c5)[C@H]5CCC[C@@H]5NC(=O)OC)CC4)(OC)C3)cc2)C1 (some centres unmarked) [compound 241] | – | 10 | – | –
12 | C=CC(=O)N1CCN(C(=O)OC)CC(S(=O)(=O)c2ccc(N3CC(CN4CCC([C@@](CN5CCC5)(c5cccc(F)c5)[C@H]5CCC[C@@H]5NC(=O)OC)CC4)(OC)C3)cc2)C1 (some centres unmarked) [compound 242] | – | 10 | – | –

Results, then the compound that gave them:

Row | IC50 (MV4-11; Homo sapiens, MV4-11, 168 h) [nM] | IC50 (menin protein) [nM] | IC50 (MOLM13) [nM] | IC50 (MV4-11) [nM] | Compound
13 | < 10 | 2 | – | – | C=C(CN1CCOCC1)C(=O)N1CC(S(=O)(=O)c2ccc(N3CC(CN4CCC([C@@](CN5CCC5)(c5cccc(F)c5)[C@H]5CCC[C@@H]5NC(=O)OC)CC4)C3)cc2)C1 [Cpd. No. 9, methyl ((1S,2R)-2-((S)-2-(azetidin-1-yl)-1-(3-fluorophenyl)-1-(1-((1-(4-((1-(2-(morpholinomethyl)acryloyl)azetidin-3-yl)sulfonyl)phenyl)azetidin-3-yl)methyl)piperidin-4-yl)ethyl)cyclopentyl)carbamate]
14 | < 10 | 2 | – | – | C=C(CN(CC)CC)C(=O)N1CC(S(=O)(=O)c2ccc(N3CC(CN4CCC([C@@](CN5CCC5)(c5cccc(F)c5)[C@H]5CCC[C@@H]5NC(=O)OC)CC4)C3)cc2)C1 [Cpd. No. 21, methyl ((1S,2R)-2-((S)-2-(azetidin-1-yl)-1-(1-((1-(4-((1-(2-((diethylamino)methyl)acryloyl)azetidin-3-yl)sulfonyl)phenyl)azetidin-3-yl)methyl)piperidin-4-yl)-1-(3-fluorophenyl)ethyl)cyclopentyl)carbamate]
15 | < 10 | 2 | – | – | C=C(CN1CCC1)C(=O)N1CC(S(=O)(=O)c2ccc(N3CC(CN4CCC([C@@](CN5CCC5)(c5cccc(F)c5)[C@H]5CCC[C@@H]5NC(=O)OC)CC4)C3)cc2)C1 [Cpd. No. 22, methyl ((1S,2R)-2-((S)-2-(azetidin-1-yl)-1-(1-((1-(4-((1-(2-(azetidin-1-ylmethyl)acryloyl)azetidin-3-yl)sulfonyl)phenyl)azetidin-3-yl)methyl)piperidin-4-yl)-1-(3-fluorophenyl)ethyl)cyclopentyl)carbamate]
16 | – | 2 | – | – | C=CC(=O)Nc1cccc(S(=O)(=O)c2ccc(N3CC(CN4CCC([C@@](CN5CCC5)(c5cccc(F)c5)[C@H]5CCC[C@@H]5NC(=O)OC)CC4)C3)cc2)c1 [Cpd. No. 32, methyl ((1S,2R)-2-((S)-1-(1-((1-(4-((3-acrylamidophenyl)sulfonyl)phenyl)azetidin-3-yl)methyl)piperidin-4-yl)-2-(azetidin-1-yl)-1-(3-fluorophenyl)ethyl)cyclopentyl)carbamate]
17 | < 10 | 2 | – | – | COC(=O)N[C@H]1CCC[C@@H]1[C@](CN1CCC1)(c1cccc(F)c1)C1CCN(CC2CN(c3ccc(S(=O)(=O)C4CN(C(=O)/C=C/CN5CCC5)C4)cc3)C2)CC1 [Cpd. No. 173, Methyl ((1S,2R)-2-((S)-2-(azetidin-1-yl)-1-(1-((1-(4-((1-((E)-4-(azetidin-1-yl)but-2-enoyl)azetidin-3-yl)sulfonyl)phenyl)azetidin-3-yl)methyl)piperidin-4-yl)-1-(3-fluorophenyl)ethyl)cyclopentyl)carbamate]
18 | < 50 | 2 | – | – | COC(=O)N[C@H]1CCC[C@@H]1[C@](CN1CCC1)(c1cccc(F)c1)C1CCN(CC2CN(c3ccc(C(F)(F)C4CN(C(=O)/C=C/CN5CCCCC5)C4)cc3)C2)CC1 [compound 71]
19 | – | 2 | – | < 50 | C=CC(=O)Nc1cncc(S(=O)(=O)c2ccc(N3CC(F)(CN4CCC([C@@](CN5CCC5)(c5cccc(F)c5)[C@H]5CCC[C@@H]5NC(=O)OC)CC4)C3)c(F)c2)c1 [compound 86]
20 | < 10 | 2 | – | – | COC(=O)N[C@H]1CCC[C@@H]1[C@](CN1CCC1)(c1cccc(F)c1)C1CCN(CC2CN(c3ccc(S(=O)(=O)C4CN(C(=O)/C=C/CN5CCC(F)(F)CC5)C4)cc3)C2)CC1 [compound 103]
21 | < 50 | 2 | – | – | CC#CC(=O)N1CC[C@@H](S(=O)(=O)c2ccc(N3CC(O)(CN4CCC([C@@](CNC(C)=O)(c5cccc(F)c5)[C@H]5CCC[C@@H]5NC(=O)OC)CC4)C3)c(F)c2)C1 [compound 206]
